These results are taken from article PMC5124248, “Antitumor activity of TY-011 against gastric cancer by inhibiting Aurora A, Aurora B and VEGFR2 kinases” (Journal of Experimental & Clinical Cancer Research : CR, 2016).

Assay [1] has as its target T1, Aurora B (Homo sapiens, UniProt Q96GD4).
T1 construct: gift from Professor Jia Li, Shanghai Institute of Materia Medica/Chinese Academy of Sciences
The assay can be described thus: HTRF KinEASE-STK kinase assay, Aurora B. It counts as biochemical. The source says: The inhibition of TY-011 on activity of Aurora A, Aurora B and VEGFR2 was characterized by HTRF® KinEASE™-STK/TK kit according to the manufacturer’s instructions (Cisbio Assays, Codolet, France). Aurora A and Aurora B were gifts from Professor Jia Li, Shanghai Institute of Materia Medica/Chinese Academy of Sciences. VEGFR2 was purchased from Carna Biosciences (Kobe, Japan).

Assay [2] concerns SNU-16 cells. Nature of the assay: CCK-8 cell proliferation assay, SNU-16. The settings on record: Homo sapiens; SNU-16, CCK-8, Fig. 3. The class given is cell-based. How it is done: (§1) During the logarithmic growth phase, each cell line was seeded in a 96-well tissue culture plate (Thermo Fisher Scientific, Waltham, MA, USA) at a predetermined density in complete medium, attached overnight and treated with compound for the indicated time. The medium was discarded and replaced with 10% CCK-8 (Dojindo, Kumamoto, Japan) in complete medium, then incubated the plates for another 2 h. The OD450 was measured with SpectraMax M5 (Molecular Devices, CA, USA). A background absorbance of ODblank was subtracted from all wells. The survival rate was determined with following formula: Survival rate (%) = ODcompound/ODDMSO × 100%. The IC50 values were calculated by concentration − response curve fitting using the four parameter method.

The test system of assay [3] is MKN-45 cells. Nature of the assay: CCK-8 cell proliferation assay, MKN-45. The class given is cell-based. The conditions noted are these: Homo sapiens; MKN-45, CCK-8, Fig. 3. The procedure:
as §1
On the technique in general: Tetrazolium assays rely on reduction of a dye to a coloured formazan, in cell work by metabolically active cells.

The subject of assay [4] is MGC-803 cells. Nature of the assay: CCK-8 cell proliferation assay, MGC-803. It counts as cell-based. The conditions noted are these: Homo sapiens. The procedure:
as §1

The test system of assay [5] is SGC-7901 cells. Nature of the assay: CCK-8 cell proliferation assay, SGC-7901. It counts as cell-based. The conditions noted are these: Homo sapiens; SGC-7901, CCK-8, Fig. 3. The procedure:
as §1

For assay [6], the system named is AGS cells. Nature of the assay: CCK-8 cell proliferation assay, AGS. The conditions noted are these: Homo sapiens, CCK-8, Fig. 3. It counts as cell-based. The procedure: as §1
Assay [7] has as its system HUVECs. Nature of the assay: VEGF- or FBS-induced HUVEC proliferation assay (CCK-8). The class given is cell-based, human. The conditions noted are these: for IC50: Homo sapiens, HUVEC. The procedure: as §1
In VEGF-induced HUVEC proliferation assay, HUVECs cells were seeded in a 96-well tissue culture plate at a predetermined density in HUVEC basic medium with 0.5% FBS. After the cells attached, cells were treated with different concentration of TY-011 in the presence of 50 ng/ml VEGF165 (R&D systems, Minneapolis, MN, USA) or 10% FBS. The CCK-8 assay as above was used for determination of cell viability.

Assay [8] has as its system MGC-803 cells. The assay can be described thus: Cell cycle analysis by flow cytometry, MGC-803. The class given is cell-based, human. The procedure: Cell cycle distribution was determined by flow cytometry measurement of DNA content after cells were incubated with RNase A (50 μg/ml) and propidium iodide (50 μg/ml). The cellular DNA content was measured on a flow cytometer (Guava EasyCyte 6HT-2 L, Merck Millipore, Billerica, MA, USA). The percentage of each population was analyzed using the InCyte software. At least 20 000 cells were analyzed for each data point.
A general note: A flow cytometer gives signals particle by particle.

The subject of assay [9] is MGC-803 cells. The assay can be described thus: Annexin V/PI apoptosis analysis, MGC-803. The conditions noted are these: 48 h (7.8% control). The class given is cell-based, human. How it is done:
(§2) Apoptosis was detected by FITC Annexin V Apoptosis Detection Kit I according to the manufacturer’s instructions (Dojindo, Kumamoto, Japan) to determine the phosphatidyl serine exposure. Apoptotic cells were quantified by a flow cytometer (Guava EasyCyte 6HT-2 L, Merck Millipore, Billerica, MA, USA) using the InCyte software. At least 10 000 cells were analyzed for each data point.

Assay [10] has as its system SGC-7901 cells. The assay can be described thus: Annexin V/PI apoptosis analysis, SGC-7901. The class given is cell-based, human. The settings on record: 48 h (14.1% control). The procedure: as §2
Assay [11] relates to MGC-803 xenograft tumor tissues. The assay can be described thus: TUNEL staining of xenograft tumor tissues. The class given is in vivo, BALB/c nu/nu mice. The conditions noted are these: 9 mg/kg. From the text: (§3) Female BALB/c nu/nu mice (5–6 weeks, 16–18 g) were obtained from Sino-British SIPPR/BK Lab. Animal Ltd, Shanghai, China, with the certification number of 2008001638201. The animals were housed in specific pathogen-free (SPF) conditions at Key Laboratory of Brain Functional Genomics, Ministry of Education, and were acclimatized for a week prior to use. Human MGC-803 xenografts were established by subcutaneously inoculating 5 × 10^6 cells into nude mice. When the tumors reached a mean group size of 100 ~ 150 mm^3, the mice were randomized into control and treatment groups to receive treatment accordingly. TY-011 was orally administered at 3, 6 and 9 mg/kg once a day for 13 days. […] The tumor growth was recorded with the measurement of length (L) and width (W) by caliper every other day, and calculated as tumor volume (V) = L × W^2/2. Meanwhile, the body weights of mice were recorded. The tumor volume at day n was expressed as relative tumor volume (RTV) according to the following formula: RTV% = (TVn/TV0) ×100%, where TVn is the tumor volume at day n and TV0 is the tumor volume at day 0. The therapeutic effect of treatment was calculated with formula T/C (%) = mean RTV of the treated group/mean RTV of the control group × 100%. […] The tumor regression of individual mouse was defined as the tumor volume at the end was less than the tumor volume when treatment was initiated. […]

Assay [12] deals with CD31 (angiogenesis marker) in tumor tissues. Nature of the assay: CD31 immunohistochemistry of xenograft tumor tissues. It counts as in vivo, BALB/c nu/nu mice. The conditions noted are these: TY-011 treated group vs control group.
Description: as §3

The test system of assay [13] is HUVECs. The assay can be described thus: HUVEC growth inhibition, 6 h, CCK-8. The settings on record: various concentrations. It counts as cell-based, human. The procedure: as §1

Where two headings read alike, the source gives them in different places.

T1 sequence (Q96GD4 whole entry): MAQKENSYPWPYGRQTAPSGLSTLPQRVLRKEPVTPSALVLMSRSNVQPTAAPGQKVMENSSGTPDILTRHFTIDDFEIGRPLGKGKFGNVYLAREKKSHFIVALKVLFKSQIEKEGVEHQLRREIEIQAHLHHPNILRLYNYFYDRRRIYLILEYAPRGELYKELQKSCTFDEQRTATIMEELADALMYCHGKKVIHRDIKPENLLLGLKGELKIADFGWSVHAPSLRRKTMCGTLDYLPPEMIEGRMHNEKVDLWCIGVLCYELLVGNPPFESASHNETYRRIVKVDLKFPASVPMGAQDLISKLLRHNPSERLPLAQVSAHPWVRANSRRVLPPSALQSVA

`CCc1cc2c(cn1)C(c1ccccc1Cl)=Nc1c(n[nH]c1C)N2` [TY-011, 9-(2-chloro-phenyl)-6-ephyl-1-methyl-2,4-dihydro-2,3,4,7,10-pentaaza-benzo[f]azulene]: the IC50 (in general, the midpoint of a concentration-inhibition curve) in assay [1] (Table S1, read-out: IC50 Aurora B) was 90 nM; in assay [1] (mean ± SD of three independent experiments, read-out: Aurora B IC50) it was 93.9 ± 33.7 nM; in assay [2], 90 ± 20 nM; in assay [3], 130 ± 10 nM; in [4] (MGC-803, Table S1, proliferation, read-out: IC50 MGC-803) it was 210 nM; in [4] (MGC-803, CCK-8, Fig. 3, read-out: IC50), 190 ± 20 nM. The IC50 was found to be 570 ± 30 nM in assay [5]; 960 ± 100 nM in assay [6]; 461 ± 61.8 nM in assay [7] (50 ng/ml VEGF165, 72 h, read-out: VEGF IC50); 6100 ± 16.4 nM in assay [7] (10% FBS, 72 h, read-out: FBS IC50). Also, the “IC50 in cells treated with VEGF lower than in cells treated with FBS” value in assay [7] (72 h) is 13 fold. Further, the G2/M phase cells in assay [8] (MGC-803, 0.2 μM, 12 h (from 26.4%)) is recorded as 51.4%. The “cells with >4 N DNA content” value in [8] (MGC-803, 0.2 μM, 48 h) is reported as 39.8%. Moreover, the “proportion of cells with >4 N DNA content” value in assay [8] (MGC-803, 0.4 μM, 24 h (4.3% no treatment)) worked out at 29.5%. The “proportion of G2/M phase cells” value in assay [8] (MGC-803, 0.4 μM, 24 h (28.8% no treatment)) stood at 65.0%. The apoptosis in assay [9] (MGC-803, 0.1 μM) came out at 39.3%; in assay [9] (MGC-803, 0.2 μM), 78.2%; in assay [9] (MGC-803, 0.4 μM), 86.1%. The apoptotic cells is 17.2% in [10] (SGC-7901, 0.25 μM); 28.4% in assay [10] (SGC-7901, 0.5 μM); 54.3% in assay [10] (SGC-7901, 1 μM). For the same compound, the “apoptosis in tumor tissues (TUNEL)” value in assay [11] was “obvious increase in apoptosis”. Further, the “CD31 staining in tumor tissues” value in [12] is “much less than control group”. Besides, in [13], the “HUVEC proliferation under tube formation treatment condition” value is recorded as “didn’t affect HUVEC proliferation”.
